In patent US9695155B2, “Herbicidal substituted pyrimidinyloxy benzene compounds” (E. I. DU PONT DE NEMOURS AND COMPANY, priority 2013, dated 2017):

Assays:
sedge, umbrella = test: Test B flooded paddy test; format: in vivo, Cyperus difformis; details: Cyperus difformis, Flood, 250 g ai/ha; 0 to 100 scale where 0 is no effect and 100 is complete control; read-out: Plant response rating, Sedge, Umbrella
Outline: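 Seedlings are raised to two leaves, flooded to a depth of 3 cm and dosed by adding the compound to the floodwater. Water level is kept constant, and plants are scored visually versus controls 13–15 days later (0 = no effect, 100 = complete control).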

galium = test: Test C postemergence; format: in vivo, Galium aparine; details: Galium, post-emergence
Outline: (§1)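 Seeds are planted in blended loam soil and sand and treated preemergence, while seedlings in a peat moss/vermiculite medium receive postemergence sprays at 2 to 18 cm height. All plants stay in the greenhouse for 13 to 15 days before visual comparison with controls on a 0–100 scale.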

velvetleaf [1] = test: Test C preemergence; format: in vivo, Abutilon theophrasti; details: Abutilon theophrasti, pre-emergence
Outline: as §1

ragweed = test: Test C postemergence; format: in vivo, Ambrosia elatior; details: Ambrosia artemisiifolia, post-emergence
Outline: as §1

morningglory [2] = test: Test C preemergence; format: in vivo, Ipomoea coccinea; details: Ipomoea, pre-emergence
Outline: as §1

giant foxtail [3] = test: Test A preemergence; format: in vivo, Setaria faberii; details: Setaria faberi, pre-emergence, 240 h
Outline: (§2)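 Visual 0–100 rating (100 = complete control) taken about 10 d post-treatment relative to untreated checks. Preemergence: directed soil spray on sown loam/sand pots. Postemergence: seedlings 2–10 cm, 1–2 leaf. Non-phytotoxic solvent formulation with surfactant.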

wheat, winter = test: Test C postemergence; format: in vivo, Triticum aestivum; details: Triticum aestivum, post-emergence
Outline: as §1

morningglory [4] = test: Test C postemergence; format: in vivo, Ipomoea coccinea; details: Ipomoea, post-emergence
Outline: as §1

waterhemp = test: Test C preemergence; format: in vivo, Amaranthus rudis; details: Amaranthus tuberculatus, pre-emergence
Outline: as §1

velvetleaf [5] = test: Test A postemergence; format: in vivo, Abutilon theophrasti; details: Abutilon theophrasti, post-emergence, 240 h
Outline: as §2

yellow nutsedge = test: Test C postemergence; format: in vivo, Cyperus esculentus; details: Cyperus, post-emergence
Outline: as §1

barnyardgrass = test: Test A postemergence; format: in vivo, Echinochloa crus-galli; details: Echinochloa crus-galli, post-emergence, 240 h
Outline: as §2

corn = test: Test C preemergence; format: in vivo, Zea mays; details: Zea mays, pre-emergence
Outline: as §1

giant foxtail [6] = test: Test C postemergence; format: in vivo, Setaria faberii; details: Setaria faberi, post-emergence
Outline: as §1

wheat = test: Test A postemergence; format: in vivo, Triticum aestivum; details: Triticum aestivum, post-emergence, 240 h
Outline: as §2

Q: What does the source list for `N#Cc1cccc(Oc2ncc(Cl)cn2)c1-n1cc(C(F)(F)F)cn1` [Compound 58, 3-[(5-chloro-2-pyrimidinyl)oxy]-2-[4-(trifluoromethyl)-1H-pyrazol-1-yl]benzonitrile]?
A: pest or weed control at 250 g/ha (sedge, umbrella): 90%; pest or weed control at 125 g/ha (galium; 125 g ai/ha, postemergence, read-out: Plant response rating (0 to 100), Galium): 85%; pest or weed control at 250 g/ha (galium; 250 g ai/ha, postemergence, read-out: Plant response rating (0 to 100), Galium): 95%; pest or weed control at 31 g/ha (galium; Postemergence, 31 g ai/ha, scale 0 to 100 (0 no effect, 100 complete control), 13 to 15 days, read-out: Plant response rating, Galium): 60%; pest or weed control at 62 g/ha (galium; Postemergence, 62 g ai/ha, scale 0 to 100 (0 no effect, 100 complete control), read-out: Plant response rating, Galium): 70%; pest or weed control at 62 g/ha (velvetleaf [1]; 62 g ai/ha, preemergence, scale 0 (no effect) to 100 (complete control), read-out: Velvetleaf plant response rating): 100%; pest or weed control at 125 g/ha (velvetleaf [1]; 125 g ai/ha, preemergence, scale 0 (no effect) to 100 (complete control), read-out: Velvetleaf plant response rating): 100%; pest or weed control at 250 g/ha (velvetleaf [1]; 250 g ai/ha, preemergence, scale 0 (no effect) to 100 (complete control), read-out: Velvetleaf plant response rating): 100%; pest or weed control at 31 g/ha (velvetleaf [1]; Preemergence, 31 g ai/ha, scale 0 to 100, 0 no effect, 100 complete control, read-out: Plant response rating, Velvetleaf): 100%; pest or weed control at 125 g/ha (ragweed; 125 g ai/ha, postemergence, read-out: Plant response rating (0 to 100), Ragweed): 85%; pest or weed control at 250 g/ha (ragweed; 250 g ai/ha, postemergence, read-out: Plant response rating (0 to 100), Ragweed): 90%; pest or weed control at 31 g/ha (ragweed; Postemergence, 31 g ai/ha, scale 0 to 100 (0 no effect, 100 complete control), 13 to 15 days, read-out: Plant response rating, Ragweed): 40%; pest or weed control at 62 g/ha (ragweed; Postemergence, 62 g ai/ha, scale 0 to 100 (0 no effect, 100 complete control), read-out: Plant response rating, Ragweed): 45%; pest or weed control at 62 g/ha (morningglory [2]; 62 g ai/ha, preemergence, scale 0 (no effect) to 100 (complete control), read-out: Morningglory plant response rating): 100%; pest or weed control at 125 g/ha (morningglory [2]; 125 g ai/ha, preemergence, scale 0 (no effect) to 100 (complete control), read-out: Morningglory plant response rating): 100%; pest or weed control at 250 g/ha (morningglory [2]; 250 g ai/ha, preemergence, scale 0 (no effect) to 100 (complete control), read-out: Morningglory plant response rating): 100%; pest or weed control at 31 g/ha (morningglory [2]; Preemergence, 31 g ai/ha, scale 0 to 100, 0 no effect, 100 complete control, read-out: Plant response rating, Morningglory): 100%; pest or weed control at 125 g/ha (giant foxtail [3]; 125 g ai/ha, 0 to 100 scale where 0 is no effect and 100 is complete control, read-out: Plant response rating, Foxtail, Giant): 100%; pest or weed control at 500 g/ha (giant foxtail [3]; 500 g ai/ha, 0 to 100 scale, 0 no effect, 100 complete control, approx. 10 days, read-out: Foxtail, Giant plant response rating): 100%; plant injury at 125 g/ha (wheat, winter; 125 g ai/ha, postemergence, read-out: Plant response rating (0 to 100), Wheat): 25%; plant injury at 250 g/ha (wheat, winter; 250 g ai/ha, postemergence, read-out: Plant response rating (0 to 100), Wheat): 30%; plant injury at 31 g/ha (wheat, winter; Postemergence, 31 g ai/ha, scale 0 to 100 (0 no effect, 100 complete control), 13 to 15 days, read-out: Plant response rating, Wheat): 10%; plant injury at 62 g/ha (wheat, winter; Postemergence, 62 g ai/ha, scale 0 to 100 (0 no effect, 100 complete control), read-out: Plant response rating, Wheat): 15%; pest or weed control at 125 g/ha (morningglory [4]; 125 g ai/ha, postemergence, read-out: Plant response rating (0 to 100), Morningglory): 98%; pest or weed control at 250 g/ha (morningglory [4]; 250 g ai/ha, postemergence, read-out: Plant response rating (0 to 100), Morningglory): 98%; pest or weed control at 31 g/ha (morningglory [4]; Postemergence, 31 g ai/ha, scale 0 to 100 (0 no effect, 100 complete control), 13 to 15 days, read-out: Plant response rating, Morningglory): 80%; pest or weed control at 62 g/ha (morningglory [4]; Postemergence, 62 g ai/ha, scale 0 to 100 (0 no effect, 100 complete control), read-out: Plant response rating, Morningglory): 95%; pest or weed control at 62 g/ha (waterhemp; 62 g ai/ha, preemergence, scale 0 (no effect) to 100 (complete control), read-out: Waterhemp plant response rating): 100%; pest or weed control at 125 g/ha (waterhemp; 125 g ai/ha, preemergence, scale 0 (no effect) to 100 (complete control), read-out: Waterhemp plant response rating): 100%; pest or weed control at 250 g/ha (waterhemp; 250 g ai/ha, preemergence, scale 0 (no effect) to 100 (complete control), read-out: Waterhemp plant response rating): 100%; pest or weed control at 31 g/ha (waterhemp; Preemergence, 31 g ai/ha, scale 0 to 100, 0 no effect, 100 complete control, read-out: Plant response rating, Waterhemp): 100%; pest or weed control at 125 g/ha (velvetleaf [5]; 125 g ai/ha, 0 to 100 scale where 0 is no effect and 100 is complete control, read-out: Plant response rating, Velvetleaf): 100%; pest or weed control at 500 g/ha (velvetleaf [5]; 500 g ai/ha, 0 to 100 scale, 0 no effect, 100 complete control, read-out: Plant response rating Velvetleaf): 100%; pest or weed control at 125 g/ha (yellow nutsedge; 125 g ai/ha, postemergence, read-out: Plant response rating (0 to 100), Nutsedge, Yellow): 15%; pest or weed control at 250 g/ha (yellow nutsedge; 250 g ai/ha, postemergence, read-out: Plant response rating (0 to 100), Nutsedge, Yellow): 15%; pest or weed control at 31 g/ha (yellow nutsedge; Postemergence, 31 g ai/ha, scale 0 to 100 (0 no effect, 100 complete control), 13 to 15 days, read-out: Plant response rating, Nutsedge, Yellow): 5%; pest or weed control at 62 g/ha (yellow nutsedge; Postemergence, 62 g ai/ha, scale 0 to 100 (0 no effect, 100 complete control), read-out: Plant response rating, Nutsedge, Yellow): 5%; pest or weed control at 125 g/ha (barnyardgrass; 125 g ai/ha, 0 to 100 scale where 0 is no effect and 100 is complete control, read-out: Plant response rating, Barnyardgrass): 100%; pest or weed control at 500 g/ha (barnyardgrass; 500 g ai/ha, 0 to 100 scale, 0 no effect, 100 complete control, read-out: Plant response rating Barnyardgrass): 100%; plant injury at 62 g/ha (corn; 62 g ai/ha, preemergence, scale 0 (no effect) to 100 (complete control), read-out: Corn plant response rating): 90%; plant injury at 125 g/ha (corn; 125 g ai/ha, preemergence, scale 0 (no effect) to 100 (complete control), read-out: Corn plant response rating): 98%; plant injury at 250 g/ha (corn; 250 g ai/ha, preemergence, scale 0 (no effect) to 100 (complete control), read-out: Corn plant response rating): 98%; Corn plant response rating (crop injury, 0 = no effect, 100 = complete kill) at 31 g/ha (corn; Preemergence, 31 g ai/ha, scale 0 to 100, 0 no effect, 100 complete control): 60%; pest or weed control at 125 g/ha (giant foxtail [6]; 125 g ai/ha, postemergence, read-out: Plant response rating (0 to 100), Foxtail, Giant): 80%; pest or weed control at 250 g/ha (giant foxtail [6]; 250 g ai/ha, postemergence, read-out: Plant response rating (0 to 100), Foxtail, Giant): 95%; pest or weed control at 31 g/ha (giant foxtail [6]; Postemergence, 31 g ai/ha, scale 0 to 100 (0 no effect, 100 complete control), 13 to 15 days, read-out: Plant response rating, Foxtail, Giant): 15%; pest or weed control at 62 g/ha (giant foxtail [6]; Postemergence, 62 g ai/ha, scale 0 to 100 (0 no effect, 100 complete control), read-out: Plant response rating, Foxtail, Giant): 40%; plant injury at 125 g/ha (wheat; 125 g ai/ha, 0 to 100 scale where 0 is no effect and 100 is complete control, read-out: Plant response rating, Wheat): 90%; plant injury at 500 g/ha (wheat; 500 g ai/ha, 0 to 100 scale, 0 no effect, 100 complete control, read-out: Plant response rating Wheat): 100%
